Measured values taken from publication PMC6100044 (Molecules : A Journal of Synthetic Chemistry and Natural …, 2018).
Read-outs that look alike come from different tables or passages of the source.

Experiments:
[1] = test system: P. falciparum CQ-resistant W-2; experiment: In vitro antimalarial assay (pLDH), Pf W-2 strain; format: cell-based, Plasmodium falciparum; conditions: for IC50: 72 h, read-out: W-2 (CQ-R) Mean ± S.D. IC50; for Ratio IC50 cpd/IC50 DHA: W-2 strain; for SI IC50WEHI-164/IC50 cpd: selectivity index versus W-2 strain
Protocol: (§1) Compounds were dissolved in either water or DMSO and then diluted with medium to achieve the required concentrations (final DMSO concentration <1%, which is non-toxic to the parasite). […] Parasite growth was determined spectrophotometrically (OD650) by measuring the activity of the parasite lactate dehydrogenase (pLDH) according to a modification of the method of Makler in control and drug-treated cultures.
(§2) As a blank, uninfected RBCs were used for the antimalarial assays or media without cells for the cytotoxicity assays. The percent viability was plotted as a function of drug concentrations, and the curve fitting was obtained by nonlinear regression analysis using a four parameter logistic method (software Gen5 1.10 provided with the Synergy4 plate reader [Biotek]).

[2] = cited from earlier work
[3] = test system: P. falciparum CQ-sensitive D10; experiment: In vitro antimalarial assay (pLDH), Pf D10 strain; format: cell-based, Plasmodium falciparum; conditions: for Ratio IC50 cpd/IC50 DHA: D10 strain; for IC50: read-out: D10 (CQ-S) Mean ± S.D. IC50; for SI IC50WEHI-164/IC50 cpd: selectivity index versus D10 strain
Protocol: as §1, §2

[4] = design: method as in earlier work; conditions: 28 (artemisone), 29 (DHA); cited from earlier work
[5] = test system: Pf; conditions: fold more active; cited from earlier work
[6] = test system: myelogenous leukemia cell line K562; experiment: Cytotoxicity, MTT assay, K562; format: cell-based, human; conditions: for IC50: Homo sapiens, K562, MTT assay conducted for 72 h, read-out: Mean (±S.D.) IC50 K562
Protocol: (§3) Selected compounds were carried forward for screening against the immortalized myelogenous leukemia, K562, human microvascular endothelial cells (HMEC-1) and fresh human fibroblasts HDF (Table 2) using the MTT assay, as above.
(§4) A long term microvascular endothelial cell line (HMEC-1) immortalized by SV 40 large T antigen was kindly provided by Dr. Francisco J. Candal, Center for Disease Control, Atlanta, GA, USA. […] Fibroblasts from skin biopsies were maintained in DMEM (EuroClone, Pero, Italy) supplemented with 10% fetal calf serum (HyClone, Logan, UT, USA), 2 mM glutamine, 100 U/mL of penicillin and 100 µg/mL of streptomycin.
(§5) Cells were then treated with serial dilutions of test compounds and cell proliferation evaluated using the MTT assay as previously described. […] All the tests were performed in triplicate at least three times.
as §2

[7] = test system: fresh human dermal fibroblasts HDF; experiment: Cytotoxicity, MTT assay, HDF; format: cell-based; conditions: Fibroblast, MTT assay conducted for 72 h, read-out: Mean (±S.D.) IC50 HDF
Protocol: as §3, §4, §5, §2

[8] = test system: mouse fibrosarcoma cell line WEHI-164; experiment: Cytotoxicity, MTT assay, WEHI-164; format: cell-based; conditions: read-out: WEHI-164 Mean ± S.D. IC50
[9] = test system: different strains of Plasmodium falciparum (Pf); experiment: In vitro antimalarial assay (pLDH), summary over different Pf strains; format: cell-based; conditions: for IC50: Plasmodium falciparum, range over D10 and W-2 strains, read-out: IC50 against different strains of Plasmodium falciparum; for selectivity index (SI) with respect to WEHI-164: WEHI-164 IC50 / antimalarial IC50, over the strains
Protocol: as §1, §2

[10] = fold more active; cited from earlier work
[11] = test system: Plasmodium falciparum (Pf) W2; conditions: Pf W2 in vitro; cited from earlier work
[12] = test system: Plasmodium falciparum (Pf) D6; conditions: Pf D6 in vitro; cited from earlier work
[13] = test system: human microvascular endothelial cells (HMEC-1); experiment: Cytotoxicity, MTT assay, HMEC-1; format: cell-based; conditions: MTT assay conducted for 72 h, read-out: Mean (±S.D.) IC50 HMEC
Protocol: as §3, §4, §5, §2

[14] = human; cited from earlier work
[15] = Plasmodium falciparum, CQ-resistant strain, pLDH readout
[16] = Plasmodium falciparum, D10, 72 h, CQ-sensitive strain, 72 h, pLDH readout
[17] = Mus musculus, WEHI-164, 72 h, MTT, 72 h
[18] = CQ-resistant strain, pLDH readout
[19] = CQ-sensitive strain, 72 h, pLDH readout

SMILES | Ratio IC50 cpd/IC50 DHA [1] | SI IC50WEHI-164/IC50 cpd [1] | Ratio IC50 cpd/IC50 DHA [3] | IC50 [3, 16] [µM] | SI IC50WEHI-164/IC50 cpd [3] | IC50 [6] [µM] | IC50 [7] [µM] | IC50 [8, 17] [µM] | IC50 [1, 18] [µM] | IC50 [3, 19] [µM] | IC50 ([8]; MTT, 72 h) [µM] | other results
C[C@H]1[C@H](N2CCS(=O)(=O)CC2)O[C@@H]2O[C@@]3(C)CC[C@H]4[C@H](C)CC[C@@H]1[C@@]24OO3 [Artemisone 7, artemisone, reference compound] | 0.6 | 328 | 0.32 | 0.0011 ± 0.0004 | 269 | 0.26 ± 0.04 | 88.3 ± 33.8 | 0.296 ± 0.059 |  |  |  | IC50 [1, 15]: 0.0009 ± 0.0004 µM; neurotoxicity in vitro and in vivo [2]: negligible neurotoxicity; elimination half-life [4]: ~ 3 h; plasma clearance [4]: ~ 3.5 L/h/kg; volume of distribution [4]: 14.5 L/kg; activity relative to artesunate 4 against Pf in vitro [5]: nine-fold; IC50 [9]: 0.0009 to 0.0011 µM; activity relative to artesunate 4 in vivo [10]: at least three-fold
CC[C@@]1(O)C(=O)OCc2c1cc1n(c2=O)Cc2cc3ccccc3nc2-1 [Camptothecin, camptothecin, reference compound] |  |  |  |  |  | 0.03 ± 0.01 | 2.62 ± 0.84 |  |  |  |  | SI with respect to the human dermal fibroblasts (HDF) ([6]; HDF versus K562): < 100
CCN(CC)CCCC(C)Nc1ccnc2cc(Cl)ccc12 (stereo not drawn) [Chloroquine, chloroquine, reference compound] |  |  |  |  |  |  |  |  |  |  |  | IC50 ([1]; Plasmodium falciparum): 0.264 ± 0.143 µM; IC50 ([3]; Plasmodium falciparum, D10, 72 h): 0.0234 ± 0.0101 µM; IC50 ([8]; Mus musculus, WEHI-164, 72 h): > 10 µM
CC1CCC2C(C)C(N3CCNCC3)OC3OC4(C)CCC1C32OO4 (stereo not drawn) [Compound 10, 10α-(1-Piperazino)-10-deoxo-10-dihydroartemisinin] | 0.73 | 136 | 0.41 | 0.0014 ± 0.0005 | 107 |  |  | 0.15 ± 0.01 |  |  |  | IC50 [1, 15]: 0.0011 ± 0.0004 µM
CC1CCC2C(C)C(OC3OC(CO)C(O)C(O)C3O)OC3OC4(C)CCC1C32OO4 (stereo not drawn) [Compound 11] |  |  |  |  |  |  |  |  |  |  |  | IC50 [11]: 0.0763 µM; IC50 [12]: 0.272 µM
CC1CCC2C(C)C(OC3OC(CO)C(O)C(O)C3O)OC3OC4(C)CCC1C32OO4 (stereo not drawn) [Compound 12] |  |  |  |  |  |  |  |  |  |  |  | IC50 [11]: 0.0797 µM; IC50 [12]: 0.0294 µM
CC1CCC2C(C)C(N3CCN(C4OC(CO)C(O)C(O)C4O)CC3)OC3OC4(C)CCC1C32OO4 (stereo not drawn) [Compound 18] | 0.8 | 233 | 0.38 |  | 215 | 0.81 ± 0.24 | 382 ± 31.2 |  | 0.0012 ± 0.0003 | 0.0013 ± 0.0001 | 0.28 ± 0.08 | IC50 [13]: 4.41 ± 2.29 µM
CC1CCC2C(C)C(N3CCN(C4OC(CO)C(O)C(O)C4O)CC3)OC3OC4(C)CCC1C32OO4 (stereo not drawn) [Compound 19] | 0.5 | 239 | 0.26 |  | 195 |  |  |  | 0.00071 ± 0.0002 | 0.00087 ± 0.00025 | 0.17 ± 0.03 | IC50 [9]: 0.00058 to 0.00087 µM; selectivity index (SI) with respect to WEHI-164 [9]: > 195
CC1CCC2C(C)C(N3CCN(C4OC(CO)C(O)C(O)C4O)CC3)OC3OC4(C)CCC1C32OO4 (stereo not drawn) [Compound 20] | 2.9 | 772 | 1.7 |  | 596 |  |  |  | 0.0044 ± 0.0023 | 0.0057 ± 0.0029 | 3.4 | 
CC1CCC2C(C)C(N3CCN(C4OC(CO)C(OC5OC(CO)C(O)C(O)C5O)C(O)C4O)CC3)OC3OC4(C)CCC1C32OO4 (stereo not drawn) [Compound 21] | 1.0 | 166 | 0.56 | 0.0019 ± 0.0011 | 131 | 0.78 ± 0.15 | 534 ± 9.9 | 0.25 ± 0.09 |  |  |  | IC50 [13]: 2.5 ± 0.8 µM; IC50 [1, 15]: 0.0015 ± 0.0005 µM
CC1CCC2C(C)C(N3CCN(C4CC(O)C(O)C(CO)O4)CC3)OC3OC4(C)CCC1C32OO4 (stereo not drawn) [Compound 22] | 0.73 | 463 | 0.68 | 0.0023 ± 0.001 | 222 |  |  | 0.51 ± 0.1 |  |  |  | IC50 [1, 15]: 0.0011 ± 0.0004 µM
CC1CCC2C(C)C(N3CCN(C4OC(C)C(O)C(O)C4O)CC3)OC3OC4(C)CCC1C32OO4 (stereo not drawn) [Compound 23] | 0.49 | 878 | 0.22 | < 0.001 | 878 | 1.95 ± 0.48 | 314 ± 85.6 | 0.65 ± 0.06 | 0.00074 ± 0.0003 | 0.00074 ± 0.00034 |  | IC50 [1, 15]: < 0.001 µM; IC50 [9]: 0.00058 to 0.00087 µM; selectivity index (SI) with respect to WEHI-164 [9]: > 195
CC1CCC2C(C)C(N3CCN(C4OC(CO)C(O)C4O)CC3)OC3OC4(C)CCC1C32OO4 (stereo not drawn) [Compound 24] | 2.7 | 119 | 1.4 |  | 102 | 0.87 ± 0.05 | 389 ± 8.6 |  | 0.0041 ± 0.0032 | 0.0048 ± 0.0029 | 0.49 ± 0.2 | IC50 [13]: 2.39 ± 1.51 µM
CC1CCC2C(C)C(N3CCN(C4OC(CO)C(O)C4O)CC3)OC3OC4(C)CCC1C32OO4 (stereo not drawn) [Compound 25] | 0.39 | 275 | 0.19 |  | 242 |  |  |  | 0.00058 ± 0.0003 | 0.00066 ± 0.0002 | 0.16 ± 0.04 | IC50 [9]: 0.00058 to 0.00087 µM; selectivity index (SI) with respect to WEHI-164 [9]: > 195
CC1CCC2C(C)C(N3CCN(C4OC(CO)C(O)C4O)CC3)OC3OC4(C)CCC1C32OO4 (stereo not drawn) [Compound 26] | 0.55 | 256 | 0.38 |  | 161 |  |  |  | 0.00082 ± 0.00025 | 0.0013 ± 0.0008 | 0.21 ± 0.01 | 
C[C@H]1[C@@H](O)O[C@@H]2O[C@@]3(C)CC[C@H]4[C@H](C)CC[C@@H]1[C@@]24OO3 [DHA 2, dihydroartemisinin, reference compound] |  |  |  | 0.0034 ± 0.0016 |  | 2.76 ± 0.66 | 88.7 ± 13.3 | 0.72 ± 0.14 |  |  |  | IC50 [13]: 1.16 ± 0.4 µM; half-life of antimalarial activity [14]: ~ 3 h; elimination half-life [4]: ~ 1 h; plasma clearance [4]: ~ 5.4 L/h/kg; volume of distribution [4]: 7.7 L/kg
C[C@@H]1CC[C@H]2[C@@H](C)C(=O)O[C@@H]3O[C@@]4(C)CC[C@@H]1[C@]32OO4 [artemisinin 1, artemisinin] |  |  |  |  |  |  |  |  |  |  |  | IC50 [11]: 0.0024 µM; IC50 [12]: 0.0104 µM
